The text below walks through data of patent publication EP2970215B1, “PYRROLIDINE DERIVATIVES, PHARMACEUTICAL COMPOSITIONS CONTAINING THEM, AND THEIR USE IN THERAPY” (AbbVie Deutschland GmbH & Co. KG, priority 2013, dated 2014).

A value given as a limit tells only on which side of the number the result lay.

The first assay concerns the target T1, human GlyT1c transporter (Homo sapiens, UniProt P48067).
T1 construct: expressed in transfected cells; host or cells: CHO cells (recombinant; line hGlyT1c_5_CHO is named for the uptake assay)
T1 sequence (P48067 1-706): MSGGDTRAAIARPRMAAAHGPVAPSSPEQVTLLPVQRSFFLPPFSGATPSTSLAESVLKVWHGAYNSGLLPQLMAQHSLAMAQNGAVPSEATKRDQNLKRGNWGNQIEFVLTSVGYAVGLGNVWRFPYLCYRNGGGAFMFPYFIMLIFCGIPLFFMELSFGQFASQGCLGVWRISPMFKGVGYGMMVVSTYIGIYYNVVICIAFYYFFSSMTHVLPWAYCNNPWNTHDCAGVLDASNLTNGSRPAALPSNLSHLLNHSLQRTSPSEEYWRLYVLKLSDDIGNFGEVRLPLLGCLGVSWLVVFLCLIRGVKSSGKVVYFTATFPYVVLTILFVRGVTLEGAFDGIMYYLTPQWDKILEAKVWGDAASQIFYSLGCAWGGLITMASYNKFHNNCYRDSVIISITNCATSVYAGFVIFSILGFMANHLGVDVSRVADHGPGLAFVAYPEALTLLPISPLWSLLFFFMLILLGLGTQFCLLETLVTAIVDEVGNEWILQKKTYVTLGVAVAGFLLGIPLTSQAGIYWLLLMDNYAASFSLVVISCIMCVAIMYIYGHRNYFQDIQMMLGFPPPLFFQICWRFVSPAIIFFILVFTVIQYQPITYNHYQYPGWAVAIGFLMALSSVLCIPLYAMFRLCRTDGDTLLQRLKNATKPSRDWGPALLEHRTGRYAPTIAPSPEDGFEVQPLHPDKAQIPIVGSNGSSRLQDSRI
The assay can be described thus: Radioligand binding assay using recombinant CHO cell membranes expressing human GlyT1. The settings on record: radioligand binding to human GlyT1c transporter-expressing membranes. An excerpt: 2. Radioligand binding assays using recombinant CHO cell membranes expressing human GlyT1: […]
In the case of `Cn1cnc(S(=O)(=O)N2C[C@@H](Nc3cccc(Cl)c3)[C@H](c3cccc(F)c3)C2)c1` (relative stereo) [Example 188, trans-N-(3-chlorophenyl)-4-(3-fluorophenyl)-1-[(1-methyl-1H-imidazol-4-yl)sulfonyl]pyrrolidin-3-amine], the Ki was at most 100 nM.

With `Cn1cnc(S(=O)(=O)N2C[C@@H](Nc3ccnc(F)c3)[C@H](c3ccc(F)cc3)C2)c1` (relative stereo) [Example 239, 2-fluoro-N-{trans-4-(4-fluorophenyl)-1-[(1-methyl-1H-imidazol-4-yl)sulfonyl]pyrrolidin-3-yl} pyridin-4-amine], the Ki is at most 10000 nM.

In the case of `Cn1cnc(S(=O)(=O)N2C[C@H](Nc3ccc4c(c3)C(C)(C)CCO4)[C@@H](c3ccc(F)cc3)C2)c1` [Example 672, (3R,4S)-N-(4,4-dimethyl-3,4-dihydro-2H-chromen-6-yl)-4-(4-fluorophenyl)-1-[(1-methyl-1H-imidazol-4-yl)sulfonyl]pyrrolidin-3-amine], the Ki was at most 1000 nM.

With `Cn1cnc(S(=O)(=O)N2C[C@@H](C(=O)Nc3cccc(C(F)(F)F)c3)[C@H](c3ccc(F)cc3)C2)c1` (relative stereo) [Example 317, Trans-4-(4-fluorophenyl)-1-[(1-methyl-1H-imidazol-4-yl)sulfonyl]-N-[3-(trifluoromethyl)phenyl]pyrrolidine-3-carboxamide], the Ki is at most 1000 nM.

Regarding `Cn1cnc(S(=O)(=O)N2C[C@@H](Nc3ccc(Cl)c(C(F)(F)F)c3)[C@H](C3CCCO3)C2)c1` (stereo partly drawn) [Example 618, (3S,4R)-N-[4-chloro-3-(trifluoromethyl)phenyl]-1-[(1-methyl-1H-imidazol-4-yl)sulfonyl]-4-(tetrahydrofuran-2-yl)pyrrolidin-3-amine], the Ki was at most 1000 nM.

In the case of `N#Cc1cccc(N[C@@H]2CN(S(=O)(=O)c3ccc(C(F)(F)F)cc3)C[C@H]2c2ccccc2)c1` (relative stereo) [Example 144, 3-{[trans-4-phenyl-1-{[4-(trifluoromethyl)phenyl]sulfonyl}pyrrolidin-3-yl]amino}benzonitrile], the inhibitory constant (Ki) was above 10000 nM.

Turning to `CCOCCCN[C@H]1CN(S(=O)(=O)c2cn(C)cn2)C[C@@H]1c1ccccc1` [Example 589, (3R,4S)-N-(3-ethoxypropyl)-1-[(1-methyl-1H-imidazol-4-yl)sulfonyl]-4-phenylpyrrolidin-3-amine], the Ki was at most 1000 nM.

Regarding `Cn1cnc(S(=O)(=O)N2C[C@@H](NC(=O)c3cccc(C(F)(F)F)c3Cl)[C@H](c3ccccc3F)C2)c1` (relative stereo) [Example 54, 2-chloro-N-{trans-4-(2-fluorophenyl)-1-[(1-methyl-1H-imidazol-4-yl)sulfonyl]pyrrolidin-3-yl}-3-(trifluoromethyl)benzamide], the Ki is at most 1000 nM.

Consider `Cn1cnc(S(=O)(=O)N2C[C@@H](Nc3ccc(F)cc3)[C@H](c3ccccc3Cl)C2)c1` (relative stereo) [Example 253, trans-4-(2-chlorophenyl)-N-(4-fluorophenyl)-1-[(1-methyl-1H-imidazol-4-yl)sulfonyl]pyrrolidin-3-amine], for which the Ki is at most 1000 nM.

Turning to `Cn1cnc(S(=O)(=O)N2C[C@H](NC(=O)NCc3ccccc3Cl)[C@@H](c3ccc(F)cc3)C2)c1` [Example 705, 1-(2-chlorobenzyl)-3-{(3R,4S)-4-(4-fluorophenyl)-1-[(1-methyl-1H-imidazol-4-yl)sulfonyl]pyrrolidin-3-yl}urea], the Ki was at most 1000 nM.

For `CCCCCN[C@@H]1CN(S(=O)(=O)c2cn(C)cn2)C[C@H]1c1ncccc1F` (relative stereo) [Example 765, Trans-4-(3-fluoropyridin-2-yl)-1-[(1-methyl-1H-imidazol-4-yl)sulfonyl]-N-pentylpyrrolidin-3-amine], the Ki was at most 1000 nM.

Turning to `Cn1cnc(S(=O)(=O)N2C[C@@H](Nc3ccc(Cl)c(F)c3)[C@H](c3cccc(F)c3)C2)c1` (relative stereo) [Example 193, trans-N-(4-chloro-3-fluorophenyl)-4-(3-fluorophenyl)-1-[(1-methyl-1H-imidazol-4-yl)sulfonyl]pyrrolidin-3-amine], the Ki was at most 10000 nM.

For the compound `Cn1cnc(S(=O)(=O)N2C[C@@H](NCc3ccc(F)cc3)[C@H](c3ccc(F)cc3)C2)c1` (relative stereo) [Example 156, trans-N-(4-fluorobenzyl)-4-(4-fluorophenyl)-1-[(1-methyl-1H-imidazol-4-yl)sulfonyl]pyrrolidin-3-amine], the Ki is at most 100 nM.

With `COc1nc(N[C@H]2CN(S(=O)(=O)c3cn(C)cn3)C[C@@H]2c2ccccc2)cc(C(F)(F)F)n1` [Example 605, 2-methoxy-N-{(3R,4S)-1-[(1-methyl-1H-imidazol-4-yl)sulfonyl]-4-phenylpyrrolidin-3-yl} -6-(trifluoromethyl)pyrimidin-4-amine], the Ki is at most 1000 nM.

In the case of `CCOC(=O)N[C@H]1CN(S(=O)(=O)c2cn(C)cn2)C[C@@H]1c1ccccc1` [Example 541, ethyl {(3R,4S)-1-[(1-methyl-1H-imidazol-4-yl)sulfonyl]-4-phenylpyrrolidin-3-yl}carbamate], the Ki was at most 10000 nM.

As to `Cn1cnc(S(=O)(=O)N2C[C@@H](NC(=O)c3cccc(C(F)(F)F)c3Cl)[C@H](c3cccc(Cl)c3)C2)c1` (relative stereo) [Example 56, 2-chloro-N-{trans-4-(3-chlorophenyl)-1-[(1-methyl-1H-imidazol-4-yl)sulfonyl]pyrrolidin-3-yl}-3-(trifluoromethyl)benzamide], the Ki was at most 1000 nM.

As to `CCCS(=O)(=O)N1C[C@@H](NC(=O)c2cc(Cl)cc(Cl)c2)[C@H](c2ccccc2)C1` (relative stereo) [Example 126, 3,5-dichloro-N-[trans-4-phenyl-1-(propylsulfonyl)pyrrolidin-3-yl]benzamide], the inhibition constant (Ki) was at most 10000 nM.

`O=S(=O)(c1ccc2c(c1)OCO2)N1CC(Nc2ccc(F)c(F)c2)C(c2ccccc2)C1` (stereo not drawn) [Example 495, 1-(1,3-benzodioxol-5-ylsulfonyl)-N-(3,4-difluorophenyl)-4-phenylpyrrolidin-3-amine]: the Ki is above 10000 nM.

For `COC(=O)c1csc(S(=O)(=O)N2CC(Nc3ccc(F)c(F)c3)C(c3ccccc3)C2)c1OC` (stereo not drawn) [Example 491, methyl 5-({3-[(3,4-difluorophenyl)amino]-4-phenylpyrrolidin-1-yl}sulfonyl)-4-methoxythiophene-3-carboxylate], the Ki was at most 10000 nM.

Take `Cn1cnc(S(=O)(=O)N2C[C@@H](NC(=O)c3cccc(C(F)(F)F)c3)[C@H](c3ccccc3)C2)c1` (relative stereo) [Example 36, N-{trans-1-[(1-methyl-1H-imidazol-4-yl)sulfonyl]-4-phenylpyrrolidin-3-yl}-3-(trifluoromethyl)benzamide]: the Ki is at most 1000 nM.

For the compound `Cn1cnc(S(=O)(=O)N2C[C@@H](NC(=O)c3ccccc3)[C@H](c3ccccc3)C2)c1` (relative stereo) [Example 25, N-{trans-1-[(1-methyl-1H-imidazol-4-yl)sulfonyl]-4-phenylpyrrolidin-3-yl}benzamide], the Ki is at most 10000 nM.

As to `Cn1cnc(S(=O)(=O)N2C[C@@H](Nc3cccc(F)c3F)[C@H](c3ccc(F)cc3)C2)c1` (relative stereo) [Example 163, trans-N-(2,3-difluorophenyl)-4-(4-fluorophenyl)-1-[(1-methyl-1H-imidazol-4-yl)sulfonyl]pyrrolidin-3-amine], the Ki was at most 1000 nM.

Take `Cn1cnc(S(=O)(=O)N2C[C@@H](C(=O)NCc3cccc(C(F)(F)F)c3)[C@H](c3ccc(F)cc3)C2)c1` (relative stereo) [Example 632, Trans-4-(4-fluorophenyl)-1-[(1-methyl-1H-imidazol-4-yl)sulfonyl]-N-[3-(trifluoromethyl)benzyl]pyrrolidine-3-carboxamide]: the Ki is at most 1000 nM.

Regarding `Cn1cnc(S(=O)(=O)N2C[C@@H](NC(=O)c3ccc(C(F)(F)F)cc3Cl)[C@H](c3ccccc3)C2)c1` (relative stereo) [Example 60, 2-chloro-N-{trans-1-[(1-methyl-1H-imidazol-4-yl)sulfonyl]-4-phenylpyrrolidin-3-yl}-4-(trifluoromethyl)benzamide], the Ki was at most 100 nM.

Turning to `O=S(=O)(c1ccc(C(F)(F)F)nc1)N1CC(Nc2ccc(F)c(F)c2)C(c2ccccc2)C1` (stereo not drawn) [Example 500, N-(3,4-difluorophenyl)-4-phenyl-1-{[6-(trifluoromethyl)pyridin-3-yl]sulfonyl}pyrrolidin-3-amino], the Ki is at most 10000 nM.

The assay is the same for the next values; noted with them: radioligand binding, recombinant CHO cell membranes expressing human GlyT1c.
As to `Cn1cnc(S(=O)(=O)N2C[C@@H](Nc3ccc(F)c(C(F)(F)F)c3)[C@H](C3CCCCO3)C2)c1` (relative stereo) [Example 846, Trans-N-[4-fluoro-3-(trifluoromethyl)phenyl]-1-[(1-methyl-1H-imidazol-4-yl)sulfonyl]-4-(tetrahydro-2H-pyran-2-yl)pyrrolidin-3-amine], the Ki was at most 100 nM.

`CCCCCCNC1CN(S(=O)(=O)c2cn(C)cn2)CC1[C@@H]1CCCO1` (stereo partly drawn) [Example 821, N-hexyl-1-[(1-methyl-1H-imidazol-4-yl)sulfonyl]-4-[(2S)-tetrahydrofuran-2-yl]pyrrolidin-3-amine]: the Ki was at most 10000 nM.

The term Ki denotes the dissociation constant of the complex between target and ligand, obtained from inhibition or displacement.
